Here are results for 2 compounds from US20050215564A1, “Methods and compositions for treating hyperproliferative conditions” (priority 2002, published 2005).

Experiment [1] deals with ras-transformed fibroblasts (ras 3T3 cells). The experiment is described as follows: MTS-based cell-viability assay, control cells (FIG. 3B). The note with it: for survival (viable surviving fraction): MTS assay at day 5, over the dose range examined; for effect on cell growth: singly or together. The protocol: Screening Assay. […] Cells were plated and attached overnight in growth media consisting of DMEM with 10% fetal bovine serum (FBS). […] Media with agents was replaced every 48 hours. At day 5 and 8, media was withdrawn and cells were fixed and stained in 0.5% crystal violet in 70% methanol. The crystal violet stained cells reveal a dense intact monolayer in media absent either agent. […] This observed synergistic effect is an important finding in the treatment of diseases characterized by hyperproliferation of cells. […] For cell-counting assays, 5×10^3 cells were plated in triplicate in 100 mm cell culture dishes and allowed to attach overnight as above in DMEM+10% FBS and treated with agents in DMEM+5% PPP. Media and agents were replaced every 48 hours. At day 5 cells were trypsinized and counted with hemacytometer.
For the MTS-based cell-viability assay, 5×10^3 cells were plated in 24 well dishes overnight in DMEM+10% FBS. […] Each condition was assayed in triplicate. Media and agents were replaced every 48 hours and viable surviving fraction estimated using the MTS assay at day 5 following treatment.

Experiment [2] has as its system simian sarcoma virus-transformed NIH/3T3 (sis 3T3) fibroblast cells. In words: Screening assay, crystal violet staining of cells in 12-well dishes (FIG. 1). It counts as cell-based. Conditions: single agent in increasing amounts (STI-571 0-3 μM; ADW 0-1 μM), DMEM+5% PPP, crystal violet at day 5 and 8. The protocol:
Screening Assay. […] Cells were plated and attached overnight in growth media consisting of DMEM with 10% fetal bovine serum (FBS). […] Media with agents was replaced every 48 hours. At day 5 and 8, media was withdrawn and cells were fixed and stained in 0.5% crystal violet in 70% methanol. […] For cell-counting assays, 5×10^3 cells were plated in triplicate in 100 mm cell culture dishes and allowed to attach overnight as above in DMEM+10% FBS and treated with agents in DMEM+5% PPP. Media and agents were replaced every 48 hours. At day 5 cells were trypsinized and counted with hemacytometer.

For experiment [3], the system named is chronic myeloid leukemia and gastrointestinal stromal tumours. The note with it: humans; cited from earlier work.

Turning to `Nc1ncnc2c1c(-c1cccc(OCc3ccccc3)c1)cn2[C@H]1C[C@H](CN2CCCC2)C1` [ADW, trans-5-(3-benzyloxy-phenyl)-7-(3-pyrrolidin-1-ylmethyl-cyclobutyl)-7H-pyrrolo[2,3-d]pyrimidin-4-ylamine], in experiment [1], the “survival (viable surviving fraction)” value is recorded as “decreased survival” and the “effect on cell growth” value is on record as “little effect”.

Take `Cc1ccc(NC(=O)c2ccc(CN3CCN(C)CC3)cc2)cc1Nc1nccc(-c2cccnc2)n1` [STI-571]: in experiment [1], the “survival (viable surviving fraction)” value is “no effect on survival” and the “effect on cell growth” value is recorded as “little effect”. Moreover, the “density of cells in the monolayer” value in experiment [2] is “visibly depleted”. Further, the “efficacy in treating chronic myeloid leukemia and gastrointestinal stromal tumours” value in experiment [3] is “effective”.
